The subject of this assay is FLAP (5-lipoxygenase activating protein). Kind of assay: In vitro binding test: displacement of [3H]-7-chloro-3-(5-((3-fluoropyridin-2-yl)methoxy)-2-methylphenyl)-3,4-dihydroquinazolin-2(1H)-one from Sf9 microsome fractions. The arrangement: species or system human and mouse. Particulars: Sf9 microsome fractions expressing FLAP; 100% = radioligand binding with 10 μM sodium 3-(3-(tert-butylsulfanyl)-1-(4-chlorobenzyl)-5-isopropyl-1H-indol-2-yl)-2,2-dimethylpropanoate, 0% = DMSO; test compound concentration not given. The method, boiled down:
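Sf9 microsomes expressing human or mouse FLAP (2 μg/mL) preincubated with compound 10 min at room temperature, then 120 nM tritiated quinazolinone ligand added for 60 min; buffer 100 mM Tris-HCl pH 7.5 with NaCl, EDTA, DTT, glycerol, Tween20. Bound ligand filtered and counted by scintillation; 10 μM indole propanoate defines 100% inhibition, DMSO 0%.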
(In general: In a radioligand displacement assay an active substance lowers the binding of a labelled ligand.)

Consider `Cc1cc2c(cc1N1Cc3c(Cl)cc(C(=O)NC4CC4)cc3NC1=O)OC(c1ncccc1F)CC2` (stereo not drawn) [Example 82, 5-chloro-N-cyclopropyl-3-(2-(3-fluoropyridin-2-yl)-6-methyl-3,4-dihydro-2H-chromen-7-yl)-2-oxo-1,2,3,4-tetrahydroquinazoline-7-carboxamide], for which the “inhibitory rate (%)” value is reported as 101%.
The value for `CCOc1ncc(Cl)c2c1NC(=O)N(c1cc3c(cc1C)CCC(c1ncccc1F)O3)C2` (stereo not drawn) [Example 161, 5-chloro-8-ethoxy-3-(2-(3-fluoropyridin-2-yl)-6-methyl-3,4-dihydro-2H-chromen-7-yl)-3,4-dihydropyrido[3,4-d]pyrimidin-2(1H)-one] was 90%; that for `Cc1ccc(OCc2c(F)cccc2F)cc1N1Cc2ccncc2NC1=O` [Example 240, 3-(5-((2,6-difluorobenzyl)oxy)-2-methylphenyl)-3,4-dihydropyrido[3,4-d]pyrimidin-2(1H)-one] was 76%; that for `Cc1ccc(OCc2ncccc2F)cc1N1Cc2ccc(C(=O)NC3CC3)cc2NC1=O` [Example 261, N-cyclopropyl-3-(5-((3-fluoropyridin-2-yl)methoxy)-2-methylphenyl)-2-oxo-1,2,3,4-tetrahydroquinazoline-7-carboxamide] was 116%.
Regarding `Cc1ccc(OCc2ncccc2F)cc1N1Cc2nn(CC3CC3)cc2NC1=O` [Example 276, 2-(cyclopropylmethyl)-6-(5-((3-fluoropyridin-2-yl)methoxy)-2-methylphenyl)-2,4,6,7-tetrahydro-5H-pyrazolo[4,3-d]pyrimidin-5-one], the “inhibitory rate (%)” value is 101%.
In the case of `Cc1nc(C)c2c(c1Cl)CN(c1cc3c(cc1Cl)CCC(c1ncccc1F)O3)C(=O)N2` (stereo not drawn) [Example 79, 5-chloro-3-(6-chloro-2-(3-fluoropyridin-2-yl)-3,4-dihydro-2H-chromen-7-yl)-6,8-dimethyl-3,4-dihydropyrido[3,4-d]pyrimidin-2(1H)-one] it was 98%.
Regarding `O=C(O)c1cc2c(c(C3CC3)n1)CN(c1cc3c(cc1Cl)CCC(c1ncccc1F)O3)C(=O)N2` (stereo not drawn) [Example 71, 3-(6-chloro-2-(3-fluoropyridin-2-yl)-3,4-dihydro-2H-chromen-7-yl)-5-cyclopropyl-2-oxo-1,2,3,4-tetrahydropyrido[4,3-d]pyrimidine-7-carboxylic acid], the “inhibitory rate (%)” value is listed as 107%.
In the case of `O=C1Nc2cn(CC3CC3)nc2CN1c1cc(OCc2ncccc2F)ccc1Br` [Example 360, 6-(2-bromo-5-((3-fluoropyridin-2-yl)methoxy)phenyl)-2-(cyclopropylmethyl)-2,4,6,7-tetrahydro-5H-pyrazolo[4,3-d]pyrimidin-5-one], the “inhibitory rate (%)” value is 105%.
The value for `Cc1ccc(OCc2c(F)cccc2F)cc1N1Cc2cnn(C)c2NC1=O` [Example 311, 5-(5-((2,6-difluorobenzyl)oxy)-2-methylphenyl)-1-methyl-1,4,5,7-tetrahydro-6H-pyrazolo[3,4-d]pyrimidin-6-one] was 69%.
In the case of `COCCOc1cccc2[nH]c(=O)n(-c3cc(OCc4ncccc4F)ccc3C)c(=O)c12` [Example 366, 3-(5-((3-fluoropyridin-2-yl)methoxy)-2-methylphenyl)-5-(2-methoxyethoxy)quinazoline-2,4(1H,3H)-dione] it was 95%; in that of `Cc1ccc(OCc2c(F)cccc2F)cc1N1Cc2ccc(C(=O)NS(C)(=O)=O)cc2NC1=O` [Example 209, 3-(5-((2,6-difluorobenzyl)oxy)-2-methylphenyl)-N-(methylsulfonyl)-2-oxo-1,2,3,4-tetrahydroquinazoline-7-carboxamide], 102%.
In the case of `COC(=O)c1ccc2c(c1)NC(=O)N(c1cc(OCc3nccc(Cl)c3F)ccc1C)C2` [Example 246, methyl 3-(5-((4-chloro-3-fluoropyridin-2-yl)methoxy)-2-methylphenyl)-2-oxo-1,2,3,4-tetrahydroquinazoline-7-carboxylate] it was 109%.
In the case of `O=C1Nc2cccc(Cl)c2CN1c1cc(OCc2ncccc2F)ccc1Br` [Example 277, 3-(2-bromo-5-((3-fluoropyridin-2-yl)methoxy)phenyl)-5-chloro-3,4-dihydroquinazolin-2(1H)-one], the “inhibitory rate (%)” value amounted to 99%.
`Cc1cc2c(cc1N1Cc3c(ccnc3C(F)(F)F)NC1=O)O[C@@H](c1ncccc1F)CC2` [Example 5, 3-((2R)-2-(3-fluoropyridin-2-yl)-6-methyl-3,4-dihydro-2H-chromen-7-yl)-5-(trifluoromethyl)-3,4-dihydropyrido[4,3-d]pyrimidin-2(1H)-one]: the “inhibitory rate (%)” value is 100%.
As to `O=C1Nc2cc(OC(F)F)nc(C3CC3)c2CN1c1cc2c(cc1Cl)CC[C@H](c1ncccc1F)O2` [Example 19, 3-((2R)-6-chloro-2-(3-fluoropyridin-2-yl)-3,4-dihydro-2H-chromen-7-yl)-5-cyclopropyl-7-(difluoromethoxy)-3,4-dihydropyrido[4,3-d]pyrimidin-2(1H)-one], the “inhibitory rate (%)” value is 102%.
For the molecule `O=C1Nc2cc(OC(F)F)nc(C3CC3)c2CN1c1cc2c(cc1Cl)CC[C@@H](c1ncccc1F)O2` [Example 20, 3-((2S)-6-chloro-2-(3-fluoropyridin-2-yl)-3,4-dihydro-2H-chromen-7-yl)-5-cyclopropyl-7-(difluoromethoxy)-3,4-dihydropyrido[4,3-d]pyrimidin-2(1H)-one], the “inhibitory rate (%)” value is listed as 96%.
In the case of `Cn1c(=O)n(-c2ccc3c(c2)OC(c2c(F)cccc2F)CC3)c(=O)c2ccccc21` (stereo not drawn) [Example 329, 3-(2-(2,6-difluorophenyl)-3,4-dihydro-2H-chromen-7-yl)-1-methylquinazoline-2,4(1H,3H)-dione] it was 103%; in that of `COc1ncc(C(F)(F)F)c2c1NC(=O)N(c1cc3c(cc1C)CCC(c1ncccc1F)O3)C2` (stereo not drawn) [Example 107, 3-(2-(3-fluoropyridin-2-yl)-6-methyl-3,4-dihydro-2H-chromen-7-yl)-8-methoxy-5-(trifluoromethyl)-3,4-dihydropyrido[3,4-d]pyrimidin-2(1H)-one], 93%; in that of `Cc1cc2c(cc1N1Cc3c(C4CC4)ccnc3NC1=O)OC(c1ncccc1F)CC2` (stereo not drawn) [Example 50, 5-cyclopropyl-3-(2-(3-fluoropyridin-2-yl)-6-methyl-3,4-dihydro-2H-chromen-7-yl)-3,4-dihydropyrido[2,3-d]pyrimidin-2(1H)-one], 67%.
In the case of `Cc1ccc(OCc2ncccc2F)cc1-n1c(=O)[nH]c2ccncc2c1=O` [Example 369, 3-(5-((3-fluoropyridin-2-yl)methoxy)-2-methylphenyl)pyrido[4,3-d]pyrimidine-2,4(1H,3H)-dione] it was 106%.
In the case of `O=C(NCc1ccccn1)c1ccc(OCc2c(F)cccc2F)cc1N1Cc2ccccc2NC1=O` [Example 192, 4-((2,6-difluorobenzyl)oxy)-2-(2-oxo-1,4-dihydroquinazolin-3(2H)-yl)-N-(pyridin-2-ylmethyl)benzamide] it was 51%; in that of `O=C1Nc2ccnc(Cl)c2CN1c1ccc2c(c1)OC(c1ncccc1F)CC2` (stereo not drawn) [Example 28, 5-chloro-3-(2-(3-fluoropyridin-2-yl)-3,4-dihydro-2H-chromen-7-yl)-3,4-dihydropyrido[4,3-d]pyrimidin-2(1H)-one], 98%.
On to `Cc1ccc(OCc2ncccc2F)cc1N1Cc2c(F)cccc2NC1=O` [Example 281, 5-fluoro-3-(5-((3-fluoropyridin-2-yl)methoxy)-2-methylphenyl)-3,4-dihydroquinazolin-2(1H)-one], for which the “inhibitory rate (%)” value worked out at 107%.
In the case of `Cc1cc2c(cc1N1Cc3c(cc(N4CCCC4=O)nc3C3CC3)NC1=O)OC(c1ncccc1F)CC2` (stereo not drawn) [Example 144, 5-cyclopropyl-3-(2-(3-fluoropyridin-2-yl)-6-methyl-3,4-dihydro-2H-chromen-7-yl)-7-(2-oxopyrrolidin-1-yl)-3,4-dihydropyrido[4,3-d]pyrimidin-2(1H)-one] it was 92%.
As to `COc1ncnc2c1CN(c1cc(OCc3ncccc3F)ccc1C)C(=O)N2` [Example 319, 3-(5-((3-fluoropyridin-2-yl)methoxy)-2-methylphenyl)-5-methoxy-3,4-dihydropyrimido[4,5-d]pyrimidin-2(1H)-one], the “inhibitory rate (%)” value turned out to be 52%.
The value for `Cc1ccc(OCc2c(F)cccc2F)cc1N1Cc2cnccc2NC1=O` [Example 235, 3-(5-((2,6-difluorobenzyl)oxy)-2-methylphenyl)-3,4-dihydropyrido[4,3-d]pyrimidin-2(1H)-one] was 79%; that for `CC(C)(O)c1nccc2c1CN(c1cc3c(cc1Cl)CCC(c1ncccc1F)O3)C(=O)N2` (stereo not drawn) [Example 84, 3-(6-chloro-2-(3-fluoropyridin-2-yl)-3,4-dihydro-2H-chromen-7-yl)-5-(2-hydroxypropan-2-yl)-3,4-dihydropyrido[4,3-d]pyrimidin-2(1H)-one] was 106%; that for `Cc1ccc(OCc2ncccc2F)cc1N1Cc2cccnc2NC1=O` [Example 256, 3-(5-((3-fluoropyridin-2-yl)methoxy)-2-methylphenyl)-3,4-dihydropyrido[2,3-d]pyrimidin-2(1H)-one] was 85%.
The value for `COc1cc2c(c(C3CC3)n1)CN(c1cc3c(cc1Cl)CCC(c1ncccc1F)O3)C(=O)N2` (stereo not drawn) [Example 16, 3-(6-chloro-2-(3-fluoropyridin-2-yl)-3,4-dihydro-2H-chromen-7-yl)-5-cyclopropyl-7-methoxy-3,4-dihydropyrido[4,3-d]pyrimidin-2(1H)-one] was 102%; that for `Cc1ccc(OCc2ncccc2F)cc1N1Cc2c(ccnc2C#N)NC1=O` [Example 321, 3-(5-((3-fluoropyridin-2-yl)methoxy)-2-methylphenyl)-2-oxo-1,2,3,4-tetrahydropyrido[4,3-d]pyrimidine-5-carbonitrile] was 90%.

The values are drawn from US20150299188A1, “HETEROCYCLIC COMPOUND” (priority 2012, published 2015).
